USRE38132E1, “Phenylpyrrolidines, phenylimidazolidines,3-phenyl-1,3-oxizolidines and 3-phenyl-1,3-thiazolidines and their use in the treatment of inflammatory disease” (Boehringer Ingelheim Pharmaceuticals, Inc., priority 1997, dated 2003)
Where two headings read alike, the source gives them in different places.

Columns and labels:
[1] = target: T1, interaction of ICAM-1 with the Leukointegrin CD18/CD11a (LFA-1) (Homo sapiens, UniProt P05107+P20701); experiment: Assay to determine inhibition of LFA-1 binding to ICAM-1 (immunopurified LFA-1 on plate-bound sICAM-1, ELISA readout)
T1 construct: endogenous in cells; sICAM-1: made in house, secreted from transfected CHO DUX cells
T1 sequence (P20701 26-1170): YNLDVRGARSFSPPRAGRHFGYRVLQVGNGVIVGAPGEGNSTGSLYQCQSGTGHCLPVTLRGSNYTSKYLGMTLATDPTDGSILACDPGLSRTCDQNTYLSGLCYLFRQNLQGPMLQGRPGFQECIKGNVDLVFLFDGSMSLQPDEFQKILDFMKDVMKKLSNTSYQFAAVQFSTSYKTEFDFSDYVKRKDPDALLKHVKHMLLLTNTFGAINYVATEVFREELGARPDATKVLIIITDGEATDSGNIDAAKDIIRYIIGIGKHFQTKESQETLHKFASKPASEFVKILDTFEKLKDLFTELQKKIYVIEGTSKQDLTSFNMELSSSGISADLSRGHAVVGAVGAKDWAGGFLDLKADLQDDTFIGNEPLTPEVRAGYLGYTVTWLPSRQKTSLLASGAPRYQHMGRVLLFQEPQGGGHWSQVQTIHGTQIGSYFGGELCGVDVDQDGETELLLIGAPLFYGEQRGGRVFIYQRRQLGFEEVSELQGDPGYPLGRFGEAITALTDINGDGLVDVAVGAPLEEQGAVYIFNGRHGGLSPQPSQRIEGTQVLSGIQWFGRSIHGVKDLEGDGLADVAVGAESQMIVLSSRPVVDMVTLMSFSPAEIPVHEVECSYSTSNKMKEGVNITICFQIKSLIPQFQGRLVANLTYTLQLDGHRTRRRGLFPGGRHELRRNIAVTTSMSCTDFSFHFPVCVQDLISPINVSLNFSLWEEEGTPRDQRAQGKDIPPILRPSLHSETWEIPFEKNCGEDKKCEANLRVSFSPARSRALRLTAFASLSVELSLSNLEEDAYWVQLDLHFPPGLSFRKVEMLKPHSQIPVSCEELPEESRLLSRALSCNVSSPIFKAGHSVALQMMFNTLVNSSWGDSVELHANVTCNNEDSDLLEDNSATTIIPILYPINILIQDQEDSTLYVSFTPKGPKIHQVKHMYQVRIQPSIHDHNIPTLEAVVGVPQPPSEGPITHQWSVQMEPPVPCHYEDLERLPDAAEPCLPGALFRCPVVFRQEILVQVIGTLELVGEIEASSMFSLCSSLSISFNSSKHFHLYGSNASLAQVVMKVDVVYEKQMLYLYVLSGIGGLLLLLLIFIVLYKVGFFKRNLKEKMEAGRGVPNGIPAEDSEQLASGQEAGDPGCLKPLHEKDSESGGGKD
T1 sequence (P05107 23-769): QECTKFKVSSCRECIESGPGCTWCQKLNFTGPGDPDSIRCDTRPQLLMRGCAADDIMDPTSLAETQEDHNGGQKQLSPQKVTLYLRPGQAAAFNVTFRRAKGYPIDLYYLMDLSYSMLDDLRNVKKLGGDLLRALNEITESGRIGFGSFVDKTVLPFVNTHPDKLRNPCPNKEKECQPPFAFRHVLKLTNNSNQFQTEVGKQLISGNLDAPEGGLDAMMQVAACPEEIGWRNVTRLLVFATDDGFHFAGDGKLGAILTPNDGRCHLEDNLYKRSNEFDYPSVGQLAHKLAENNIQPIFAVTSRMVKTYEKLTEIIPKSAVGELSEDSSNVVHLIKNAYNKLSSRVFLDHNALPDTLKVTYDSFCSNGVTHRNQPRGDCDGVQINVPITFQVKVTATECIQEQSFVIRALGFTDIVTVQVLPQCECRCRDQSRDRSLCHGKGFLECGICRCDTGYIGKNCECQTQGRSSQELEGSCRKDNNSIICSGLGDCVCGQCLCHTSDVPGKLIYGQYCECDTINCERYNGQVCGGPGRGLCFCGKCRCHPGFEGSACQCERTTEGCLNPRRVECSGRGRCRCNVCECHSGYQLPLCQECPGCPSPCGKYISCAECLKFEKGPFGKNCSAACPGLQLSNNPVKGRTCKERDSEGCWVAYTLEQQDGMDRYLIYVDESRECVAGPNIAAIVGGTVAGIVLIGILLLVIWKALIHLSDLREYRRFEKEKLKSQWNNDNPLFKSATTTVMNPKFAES
Description: Assay to Determine Inhibition of LFA-1 Binding to ICAM-1 Purpose of Assay: This assay protocol is designed to study the direct antagonism, by a test compound, of the interaction of the CAM, ICAM-1 with the Leukointegrin CD18/CD11a (LFA-1). […] After collection and neutralization of fractions from the TS2/4 column, samples are pooled and precleared with Protein G agarose. […] Wells are washed 3 times with Diluting Buffer. The bound LFA-1 is detected by the addition of a polyclonal antibody directed against a peptide corresponding to the CD18 cytoplasmic tail in a 1:100 dilution with Diluting Buffer and 1% BSA and allowed to incubate for 45 min at 37° C. Wells are washed 3 times with Diluting Buffer and the bound polyclonal antibody is detected by the addition of a 1:4000 dilution of horse radish peroxidase conjugated to goat immunoglobulin directed against rabbit immunoglobulin. […] The lack of the addition of LFA-1 to the binding assay is used as a background control for all samples. A dose-response curve is obtained for all test compounds. Results of these tests are reported as Kd's in μM.

[2] = test system: cell bound form of LFA-1 (CD18, CD11a) with ICAM-1, SKW3 cells; experiment: Inhibition of SKW3 cell binding to ICAM-1 (PMA-stimulated); type: cell-based, human; settings: Homo sapiens, read-out: Assay to Detect SKW3 Cells Binding to ICAM IC50
Outline: (§1)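 Compound-treated, PMA-stimulated human T-cell line SKW3 (50 μg/mL PMA final) allowed to adhere for 2 h at 37° C to wells coated with sICAM-1 at 40 μg/mL or fibronectin at 100 μg/mL. After gentle RPMI wash, 50% inhibition concentration or range reported in μM.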

[3] = test system: cell bound fibronectin receptor (VLA4) with fibronectin, SKW3 cells; experiment: Inhibition of SKW3 cell binding to fibronectin (selectivity counter-assay); type: cell-based, human; settings: for IC50: Homo sapiens, read-out: Assay to Detect SKW3 Cells Binding to FIBRONECTIN IC50
Outline: as §1

[4] = test system: LFA-1 dependent aggregation of JY cells; experiment: JY cell homotypic aggregation assay (PMA-stimulated); type: cell-based, human
Outline: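 Homotypic aggregation of EBV-transformed JY cells, stimulated by phorbol myristate acetate ([…]), scored visually over time in compound presence at 2·10^5 cells/well in serum-supplemented RPMI 1640. Result given as μM concentration or range inhibiting binding by 50%.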

[5] = test system: SKW3 cells
[6] = values marked e approximated from incomplete dose-response curve
[7] = SKW3, values marked c: no inhibition observed up to highest dose
[8] = values marked c: no inhibition observed up to highest dose
[9] = No inh = no inhibition observed up to highest dose, exact quantification not always possible due to intrinsic toxicity
[10] = SKW3, No inh = no inhibition observed up to highest dose, exact quantification not always possible due to intrinsic toxicity

SMILES | Kd [1, 6] [nM] | IC50 [2, 7] [nM] | Assay to Detect SKW3 Cells Binding to FIBRONECTIN IC50 [3, 8] | IC50 ([4]; Homo sapiens) [nM] | Cellular Toxicity Assay MTT LD50 [5] [µM] | IC50 [3, 7] [nM] | Kd [1] [nM] | IC50 ([2]; SKW3) [nM] | Assay to Detect SKW3 Cells Binding to FIBRONECTIN IC50 [3, 9] | IC50 [4] [nM] | IC50 [3, 10] [nM]
O=C1N[C@H](Cc2ccccc2)C(=O)N1c1cc(Cl)cc(Cl)c1 [Example 15] | 2300 | 31000 to 63000 | No Inh^c | 25000 to 50000 | 125 to 250 | – | – | – | – | – | –
CC1(Cc2ccccc2)NC(=O)N(c2cc(Cl)cc(Cl)c2)C1=O (stereo not drawn) [Example 18] | 760 | 32000 to 63000 | – | 6000 | 125 to 250 | > 125000 | – | – | – | – | –
C[C@@]1(Cc2ccc(Br)cc2)C(=O)N(c2cc(Cl)cc(Cl)c2)C(=O)N1CCCCC#N [Example 256] | – | – | – | 400 | 150 to 300 | – | 120 | 800 to 2000 | No inh^c | – | –
CN1C(=O)N(c2cc(Cl)cc(Cl)c2)C(=O)C1(C)Cc1cc(Br)cc(Br)c1 (stereo not drawn) [Example 164] | 280 | > 100000 | No inh^c | 25000 | 100 to 200 | – | – | – | – | – | –
C[C@]1(Cc2ccc(C(=O)c3ccccc3)cc2)NC(=O)N(c2cc(Cl)cc(Cl)c2)C1=O [Example 184] | 370 | 800 to 1500 | No inh^c | – | 50 to 100 | – | – | – | – | 300 | –
CC(=O)N1C(=O)N(c2cc(Cl)cc(Cl)c2)C(=O)[C@@]1(C)Cc1ccc([N+](=O)[O-])cc1 [Example 135] | 200 | 25000 | No inh^c | 1700 | >400 | – | – | – | – | – | –
CN1C(=O)N(c2cc(Cl)cc(Cl)c2)C(=O)[C@@]1(C)Cc1ccccc1 [Example 266] | – | – | – | 3000 | >500 | – | 140 | 25000 to 50000 | – | – | > 50000
CC(C)N1C(=O)N(c2cc(Cl)cc(Cl)c2)C(=O)[C@]1(C)Cc1ccc(Br)cc1 [Example 274] | – | – | – | 3000 | 200 to 300 | – | 140 | 25000 to 50000 | – | – | > 100000
C[C@@]1(Cc2ccc(Br)cc2)C(=O)N(c2cc(Cl)cc(Cl)c2)C(=O)N1Cc1ccccn1 [Example 110] | 150 | 25000 | No inh^c | 9000 | 200 to 400 | – | – | – | – | – | –
CCC1(Cc2ccc(Br)cc2)C(=O)N(c2cc(Cl)cc(Cl)c2)C(=O)N1C (stereo not drawn) [Example 172] | 170 | 1800 | No inh^c | 700 | 165 | – | – | – | – | – | –
COCN1C(=O)N(c2cc(Cl)cc(Cl)c2)C(=O)[C@@]1(C)Cc1ccc(Br)cc1 [Example 131] | 200 | 3000 to 5000 | No inh^c | 1100 | >400 | – | – | – | – | – | –
CN1C(=O)N(c2cc(C(F)(F)F)cc(C(F)(F)F)c2)C(=O)[C@@]1(C)Cc1ccc(Br)cc1 [Example 100] | 190 | 8000 to 15000 | – | 700 | >400 | > 60000 | – | – | – | – | –
CC(C)N1C(=O)N(c2cc(Cl)cc(Cl)c2)C(=O)[C@@]1(C)Cc1ccc(Br)cc1 [Example 273] | – | – | – | 2000 | 150 to 300 | – | 190 | 38000 | – | – | > 75000
C[C@@]1(Cc2ccc(Br)cc2)C(=O)N(c2cc(Cl)cc(Cl)c2)C(=O)N1CCCCn1ccnc1 [Example 252] | – | – | – | 300 | 17 to 20 | – | 110 | 400 to 800 | No inh^c | – | –
CN1C(=O)N(c2cc(Cl)cc(Cl)c2)C(=O)C1(CCO)Cc1ccc(Br)cc1 (stereo not drawn) [Example 244] | – | – | – | 2200 | 200 to 400 | – | 3980 | 4000 to 8000 | No inh^c | – | –
CN1C(=O)N(c2cc(Cl)c(F)c(Cl)c2)C(=O)[C@@]1(C)Cc1ccc(Br)cc1 [Example 124] | 30 | 1500 | No inh^c | 100 | 100 to 200 | – | – | – | – | – | –
CC(C)N1C(=O)N(c2cc(Cl)cc(Cl)c2)C(=O)C1(C)Cc1ccc(Br)cc1 (stereo not drawn) [Example 141] | 220 | 15000 | – | 100 | 300 | > 15000 | – | – | – | – | –
Cc1cccc(C)c1CC1(C)C(=O)N(c2cc(Cl)cc(Cl)c2)C(=O)N1C (stereo not drawn) [Example 163] | 160 | 9000 to 19000 | – | 2400 | 200 to 400 | > 75000 | – | – | – | – | –
CN1C(=O)N(c2cc(Cl)cc(Cl)c2)C(=O)[C@@]1(C)Cc1ccc(-c2cccnc2)cc1 [Example 188] | 40 | 300 to 1000 | No inh^c | 30 | 56 to 112 | – | – | – | – | – | –
CN1C(=O)N(c2cc(Cl)cc(Cl)c2)C(=O)[C@@]1(C)Cc1ccc(-c2ccccn2)cc1 [Example 187] | 290 | 600 | No inh^c | 600 | 171 | – | – | – | – | – | –
CCN1C(=O)N(c2cc(Cl)cc(Cl)c2)C(=O)[C@@]1(C)Cc1ccc(Br)cc1 [Example 97] | 23 | 5000 to 10000 | No inh^c | 2000 | >350 | – | – | – | – | – | –
C[C@@]1(Cc2ccc(Br)cc2)C(=O)N(c2cc(Cl)cc(Cl)c2)C(=O)N1C1CCN(CC(=O)O)CC1 [Example 237] | – | – | – | 100 | 50 to 100 | – | 130 | 1000 to 2000 | No inh^c | – | –
CC1(Cc2ccc(Br)cc2)NC(=O)N(c2cc(Cl)cc(Cl)c2)C1=S (stereo not drawn) [Example 81] | 80 | 1000 to 3000 | No inh^c | 6300 | 25 to 50 | – | – | – | – | – | –
COC(=O)c1ccc(CC2(C)C(=O)N(c3cc(Cl)cc(Cl)c3)C(=O)N2C)cc1 (stereo not drawn) [Example 140] | 110 | 1200 | – | 200 | 180 to 360 | > 10000 | – | – | – | – | –
C[C@]1(Cc2ccc(-c3cccnc3)cc2)NC(=O)N(c2cc(Cl)cc(Cl)c2)C1=O [Example 190] | 430 | 6000 to 12000 | No inh^c | 1400 | 50 to 100 | – | – | – | – | – | –
CC(C)N1C(=O)N(c2cc(Cl)cc(Cl)c2)C(=O)C1Cc1ccc(Br)cc1 (stereo not drawn) [Example 34] | 130 | 6000 | No inh^c | 1800 | 200 to 400 | – | – | – | – | – | –
C[C@]1(Cc2cc(Br)cc(Br)c2)NC(=O)N(c2cc(Cl)cc(Cl)c2)C1=O [Example 40] | 480 | 50000 to 100000 | – | 25000 | 50 to 100 | 50000 to 100000 | – | – | – | – | –
